Results: US8440686B2, “Nalmefene prodrugs” (Janssen Pharmaceutica NV, priority 2008, dated 2013)

Assay: In vivo PK studies in dog (oral administration): plasma levels of nalmefene
Conditions: oral administration of nalmefene itself
Protocol: C.2. In vivo PK Studies in Dog (Oral Administration): Plasma Levels of Nalmefene
Doses at 10 mg/kg or 20 mg/kg body weight of a compound of formula (I) or of nalmefene itself in a solution of 20% HP-β-CD (hydroxypropyl-β-cyclodextrines) were used and orally administered to dogs.
Blood samples were taken over a period of 192 hours after oral administration. Blood samples were processed to obtain plasma. Plasma samples were analysed individually for nalmefene by means of a qualified LC-MS/MS-method.

C=C1CC[C@@]2(O)[C@H]3Cc4ccc(O)c5c4[C@@]2(CCN3CC2CC2)[C@H]1O5 [nalmefene, 17-cyclopropylmethyl-4,5α-epoxy-6-methylenemorphinan-3,14-diol]
time for which plasma levels of nalmefene can be measured after oral administration: a few hours
